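How tested: cells in 96-well plates exposed to compound for 48 hours at five concentrations. GI50 = concentration required for 50% inhibition of growth.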 Activity calls are given as the source filed them. Rule as the data show it: active = GI50 up to about 1.1 µM and inactive = higher.
Assays:
Assay in all cases: DTP human tumour cell line panel, 48 h
LOX IMVI = test system: LOX IMVI
ACHN = test system: ACHN
HOP-62 = test system: HOP-62
SK-MEL-28 = test system: SK-MEL-28
NCI-H522 = test system: NCI-H522
IGROV-1 = test system: IGROV-1
EKVX = test system: EKVX
MOLT-4 = test system: MOLT-4
HCC 2998 = test system: HCC 2998
OVCAR-8 = test system: OVCAR-8
SN12C = test system: SN12C
TK-10 = test system: TK-10
HOP-92 = test system: HOP-92
UO-31 = test system: UO-31
SR = test system: SR
SNB-75 = test system: SNB-75
HT-29 = test system: HT-29
SF-295 = test system: SF-295
CCRF-CEM = test system: CCRF-CEM
OVCAR-4 = test system: OVCAR-4

SMILES	GI50 (LOX IMVI)	GI50 (ACHN)	GI50 (HOP-62)	GI50 (SK-MEL-28)	GI50 (NCI-H522)	GI50 (IGROV-1)	GI50 (EKVX)	GI50 (MOLT-4)	GI50 (HCC 2998)	GI50 (OVCAR-8)	GI50 (SN12C)	GI50 (TK-10)	GI50 (HOP-92)	GI50 (UO-31)	GI50 (SR)	GI50 (SNB-75)	GI50 (HT-29)	GI50 (SF-295)	GI50 (CCRF-CEM)	GI50 (OVCAR-4)
Nn1c(S)nnc1COc1cccc(OCc2nnc(S)n2N)c1	32.4 µM (inactive)	> 100 µM (inactive)	> 100 µM (inactive)	> 100 µM (inactive)	65.3 µM (inactive)	> 100 µM (inactive)	> 100 µM (inactive)	3.13 µM (inactive)	> 100 µM (inactive)	> 100 µM (inactive)	> 100 µM (inactive)	> 100 µM (inactive)	> 100 µM (inactive)	> 100 µM (inactive)	2.45 µM (inactive)	> 100 µM (inactive)	43.7 µM (inactive)	> 100 µM (inactive)	30.7 µM (inactive)	> 100 µM (inactive)
OC1C2CCC3C2CC(C(O)(c2ccccc2)c2ccccc2)C13 (stereo not given)	37.8 µM (inactive)	33.7 µM (inactive)	63.2 µM (inactive)	> 100 µM (inactive)	34.8 µM (inactive)	23.9 µM (inactive)	33.8 µM (inactive)	35.8 µM (inactive)	> 100 µM (inactive)	93.1 µM (inactive)	21.9 µM (inactive)	73.5 µM (inactive)	45.2 µM (inactive)	67.6 µM (inactive)	32.7 µM (inactive)	5.47 µM (inactive)	74.5 µM (inactive)	28 µM (inactive)	29.4 µM (inactive)	> 100 µM (inactive)
CCCCCCCCCCC(C)CCCCCCC(=O)OCC(COP(=O)([O-])OCC[N+](C)(C)C)OC(=O)CCCCCCC(C)CCCCCCCCCC (stereo not given)	> 100 µM (inactive)	> 100 µM (inactive)	> 100 µM (inactive)	> 100 µM (inactive)	> 100 µM (inactive)	> 100 µM (inactive)	> 100 µM (inactive)	> 100 µM (inactive)	> 100 µM (inactive)	> 100 µM (inactive)	> 100 µM (inactive)	> 100 µM (inactive)	> 100 µM (inactive)	> 100 µM (inactive)	> 100 µM (inactive)	> 100 µM (inactive)	> 100 µM (inactive)	> 100 µM (inactive)	> 100 µM (inactive)	> 100 µM (inactive)
Cn1c(=O)c2nc3sc4c(n3c2n(C)c1=O)C(=O)c1ccccc1C4=O	> 30.9 µM (inactive)	> 32.4 µM (inactive)	> 38.9 µM (inactive)	> 75 µM (inactive)	11 µM (inactive)	> 54.3 µM (inactive)	> 100 µM (inactive)	13.5 µM (inactive)	> 80.2 µM (inactive)	> 58.6 µM (inactive)	> 69.2 µM (inactive)	> 100 µM (inactive)	16.5 µM (inactive)	> 66.2 µM (inactive)	19.5 µM (inactive)	14.7 µM (inactive)	42.6 µM (inactive)	> 72.3 µM (inactive)	17.6 µM (inactive)	> 64.6 µM (inactive)
Cc1c2cc[n+](C)cc2c(C)c2c1[nH]c1ccccc12	6.59 µM (inactive)	12.8 µM (inactive)	0.45 µM (active)	1.62 µM (inactive)	0.774 µM (active)	3.79 µM (inactive)	0.834 µM (active)	0.861 µM (active)	2.28 µM (inactive)	0.368 µM (active)	0.172 µM (active)	27.2 µM (inactive)	1.56 µM (inactive)	8.65 µM (inactive)	0.497 µM (active)	0.184 µM (active)	5.66 µM (inactive)	0.237 µM (active)	2.25 µM (inactive)	2.03 µM (inactive)

From ChEMBL document CHEMBL1201862, “PubChem BioAssay data set” (2004)
